Data published in paper PMC7998250, “Temperate Zone Plant Natural Products—A Novel Resource for Activity against Tropical Parasitic Diseases” (Pharmaceuticals, 2021).
Where two headings read alike, the source gives them in different places.

Key:
in vitro = details: human
Outline: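 Human hepatoma cells seeded at 1 × 10^5 cells/mL with two-fold serial compound dilutions, incubated 48 h at 37 °C, 5% CO2 in DMEM/10% FBS. Viability read by Alamar Blue. CC50 estimated from viability normalised to untreated controls versus log concentration.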

[1] = system: L. mexicana axenic amastigotes; assay: Concentration-response EC50, L. mexicana axenic amastigotes (WT); assay type: cell-based, Leishmania mexicana
Excerpt: Initial hits from the parasite panel screen were taken forward in log concentration versus normalised response assays to estimate the half maximal effective concentration (EC50) in hit species as well as the half maximal cytotoxic concentrations (CC50) in the human hepatoma cell line HepG2 as a preliminary test for selectivity. Using CC50/EC50 to define the selectivity index (SI), the selectivity for each compound in a defined species compared to a human cell line was estimated and compared to the EC50 (Figure 3).
EC50 values were determined by serial two-fold dilution of each compound in 96 well plates. Culture conditions and viability assays were as stated for the initial screen, with some exceptions. L. mexicana and L. donovani axenic amastigotes were seeded at 2 × 10^6 cell/s mL, T. brucei and T. evansi were seeded at 2 × 10^5 cells/mL. For cytotoxicity studies, HepG2 cells were seeded at 1 × 10^5 cells/mL, incubated for 48 h and viability was assessed using the Alamar Blue assay [66, 67]. […] Normalised growth and viability data (compared to untreated controls) were plotted against Log10 concentration to estimate EC50 in GraphPad (Prism v6).

[2] = system: P. falciparum Dd2Luc intraerythrocytic trophozoites; assay: Initial screen, intraerythrocytic P. falciparum, Malaria SYBR-Green I fluorescence assay; assay type: cell-based, Plasmodium falciparum; details: for activity at 2 µM / inhibition of growth at 2 µM: Plasmodium falciparum, 48 h; for initial hit against P. falciparum: 2 μM, growth reduced by ≥50%; for inhibition of growth at 2 µM: read-out: initial hit P.f
Outline: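 L. mexicana axenic amastigotes at 1 × 10^6 cells/mL exposed 72 h to compounds at 2 μM, growth read by Alamar Blue; P. falciparum trophozoites at 0.5% parasitaemia, 2% haematocrit, 48 h at 2 μM, SYBR-Green I read-out. Growth normalised to 1% DMSO; hits ≥50% growth reduction.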

[3] = Cytotoxicity CC50, differentiated THP-1, Alamar Blue; assay type: cell-based, human; details: human
Excerpt: The four lanosterone-like sterols derived from the Noble Fir Abies procera (700022, 700107, 700136) and the Grand Fir Abies grandis (700240) were the only initial compounds taken forward for L. mexicana due to their nanomolar activity and apparent low cytotoxicity (Figure 3a). […] Understanding the impact of the ring-opened lactone head group in this compound compared to the other three warrants further analysis in exploring their structure-activity relationships. These four sterols were also tested for growth inhibitory activity against L. donovani axenic amastigotes. […] As Leishmania spp. amastigotes typically reside with macrophages, further cytotoxicity assays with these sterols were performed against an activated monocyte cell line (THP-1) (Figure 4b). […]

[4] = Leishmania mexicana, 72 h, read-out: L. mexicana EC50, axenic amastigotes, 72 h
[5] = read-out: %growth P. falciparum, mean % growth compared to a normalised control with same concentration of DMSO solvent, initial screen
[6] = read-out: mean % growth, P. falciparum, initial screen, compared to a normalised control with same concentration of DMSO solvent
[7] = differentiated THP-1, 48 h, read-out: THP1 CC50

| SMILES | CC50 at 48 h (in vitro; pH 7, HepG2 CC50) | EC50 [1, 4] | activity at 2 µM [2, 5] | CC50 at 48 h ([3]; THP1 CC50) | CC50 at 48 h (in vitro; pH 7, HepG2 CC50, 48 h) | activity at 2 µM [2, 6] | CC50 at 48 h [3, 7] | other results |
| --- | --- | --- | --- | --- | --- | --- | --- | --- |
| CC1=CC(O)(CC(C)C2(C)CC=C3C4=CCC5C(C)(C)C(=O)CCC5(C)C4CCC32C)OC1=O (stereo not shown) [Compound 700136] | 28000 nM | 210 nM | 99.9% | 17000 nM |  |  |  |  |
| C=C1C(=O)OC2CC(C)C3C=CC(=O)C3(C)C(OC(=O)C(C)C)C12 (stereo not shown) [Compound 701157] |  | 200 nM |  |  | 1300 nM | 51.9% | 730 nM |  |
| C=C1C(=O)OC2CC(C)C3C=CC(=O)C3(C)C(OC(C)=O)C12 (stereo not shown) [Compound 701155] |  |  |  |  |  |  |  | EC50 ([1]; read-out: L. mexicana EC50, axenic amastigotes, 72 h): 230 nM; mean % growth, P. falciparum ([2]; initial screen, compared to a normalised control with same concentration of DMSO solvent): 55.1% |
| CC1=CC(O)(CC(C)C2(C)CC=C3C4=CCC5C(C)(C)C(O)CCC5(C)C4CCC32C)OC1=O (stereo not shown) [Compound 700022] | 28000 nM | 250 nM | 105% | 17000 nM |  |  |  | EC50 ([1]; Leishmania mexicana, read-out: WT EC50, L. mexicana WT axenic amastigotes): 240 nM |
| CC1=CC(O)(CC(C)C2(C)CCC3C4=CCC5C(C)(CCC(O)C5(C)C)C4=CCC32C)OC1=O (stereo not shown) [Compound 700107] | 45000 nM | 260 nM | 96.8% | 27000 nM |  |  |  |  |
| C/C(=C/C(=O)CC(C)C1CCC2(C)C3=CCC4C(C)(C)C(=O)CCC4(C)C3CCC12C)C(=O)O (stereo not shown) [Compound 700240] | 47000 nM | 510 nM | 77.9% |  |  |  |  | CC50 at 48 h ([3]; THP-1 cells differentiated into macrophages with PMA, differentiated THP-1, 48 h, read-out: THP1 CC50): 13500 nM |
| C=C1C(=O)OC2CC(C)C3C=CC(=O)C3(C)C(OC(=O)C(C)CC)C12 (stereo not shown) [Compound 701158] |  | 240 nM |  |  | 800 nM | 49% | 290 nM | initial hit against P. falciparum [2]: initial hits; inhibition of growth at 2 µM [2]: > 50% |
| CC1OC(OC2C(OC(=O)C3CC[C@@H]4[C@H](C3)OC3(CC(OC(=O)/C=C/c5ccccc5)[C@@H](C)CO3)C43CO3)OC(CO)C(O)C2O)C(O)C(O)C1O (stereo partly shown) [Compound 700042] |  |  | 28.9% |  | 2500 nM |  |  | initial hit against P. falciparum [2]: initial hits; inhibition of growth at 2 µM [2]: > 50% |
| C=C1C(=O)OC2CC(C)C3C(OC)CC(=O)C3(C)C(OC(=O)C(C)CC)C12 (stereo not shown) [Compound 701159] |  | 870 nM |  |  | 3400 nM | 83.7% | 1420 nM |  |
